Source: ChEMBL document CHEMBL1201862, “PubChem BioAssay data set” (2004)
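Exposure lasted 48 hours, with cells grown in 96-well plates and compounds tested at five concentrations. The concentration for 50% growth inhibition is given as GI50.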 The source made the active and inactive calls. Cut-off read from the data, not from the text of the source: active = GI50 up to about 1.1 µM and inactive = higher.

Legend:
Assay in all cases: growth of human tumour cells (NCI), 48 h
NCI-H460 = system: NCI-H460
Malme-3M = system: Malme-3M
CAKI-1 = system: CAKI-1
A549 = system: A549
U-251 = system: U-251
OVCAR-3 = system: OVCAR-3
HCT-116 = system: HCT-116
CCRF-CEM = system: CCRF-CEM
SF-295 = system: SF-295
HOP-62 = system: HOP-62
SNB-75 = system: SNB-75
COLO 205 = system: COLO 205
KM12 = system: KM12
OVCAR-5 = system: OVCAR-5
RXF 393 = system: RXF 393
OVCAR-4 = system: OVCAR-4
SW-620 = system: SW-620
KM-20L2 = system: KM-20L2
HOP-92 = system: HOP-92
M14 = system: M14
NCI-H226 = system: NCI-H226
SR = system: SR
UO-31 = system: UO-31
IGROV-1 = system: IGROV-1
786-0 = system: 786-0
ACHN = system: ACHN
K562 = system: K562
SK-MEL-28 = system: SK-MEL-28
EKVX = system: EKVX
SNB-19 = system: SNB-19
M19-MEL = system: M19-MEL
HT-29 = system: HT-29
UACC-62 = system: UACC-62
LXFL 529 = system: LXFL 529
SF-539 = system: SF-539
SNB-78 = system: SNB-78
MOLT-4 = system: MOLT-4
LOX IMVI = system: LOX IMVI
HOP-18 = system: HOP-18
TK-10 = system: TK-10
HCC 2998 = system: HCC 2998
HCT-15 = system: HCT-15
DMS-273 = system: DMS-273
DLD-1 = system: DLD-1
SK-OV-3 = system: SK-OV-3
A498 = system: A498
SK-MEL-5 = system: SK-MEL-5
NCI-H23 = system: NCI-H23
DMS-114 = system: DMS-114
OVCAR-8 = system: OVCAR-8
RPMI-8226 = system: RPMI-8226
SN12C = system: SN12C
SF-268 = system: SF-268
UACC-257 = system: UACC-257
Hs-578T = system: Hs-578T
HL-60 = system: HL-60
PC-3 = system: PC-3
MDA-MB-435 = system: MDA-MB-435
NCI/ADR-RES = system: NCI/ADR-RES
MDA-N = system: MDA-N
BT-549 = system: BT-549
MDA-MB-231 = system: MDA-MB-231
NCI-H522 = system: NCI-H522
XF498 = system: XF498
T47D = system: T47D
SK-MEL-2 = system: SK-MEL-2
MCF7 = system: MCF7
DU-145 = system: DU-145

`COC(=O)C1=C(c2cc(OC)c(OC)c(OC)c2)OC(c2ccc3c(c2)OCO3)C1` (stereo unspecified) was tested, and the GI50 (NCI-H460) was 31.7 µM (inactive), the GI50 (Malme-3M) was 72.1 µM (inactive) and the GI50 (CAKI-1) was 22.6 µM (inactive). For the same compound, the GI50 (A549) was 34.5 µM (inactive), the GI50 (U-251) was 19.6 µM (inactive) and the GI50 (OVCAR-3) was 26.9 µM (inactive). The GI50 (HCT-116) was 32.9 µM (inactive), the GI50 (CCRF-CEM) was 27.6 µM (inactive) and the GI50 (SF-295) was 18.5 µM (inactive). The GI50 (HOP-62) was 35.7 µM (inactive), the GI50 (SNB-75) was 39.4 µM (inactive) and the GI50 (COLO 205) was 12.8 µM (inactive). For the same compound, the GI50 (KM12) was 13.2 µM (inactive), the GI50 (OVCAR-5) was 64.4 µM (inactive) and the GI50 (RXF 393) was 49 µM (inactive). For the same compound, the GI50 (OVCAR-4) was 40.5 µM (inactive), the GI50 (SW-620) was 18.1 µM (inactive) and the GI50 (KM-20L2) was 19.7 µM (inactive). The GI50 (HOP-92) was 24.8 µM (inactive), the GI50 (M14) was 29.4 µM (inactive) and the GI50 (NCI-H226) was 56 µM (inactive). The GI50 (SR) was 5.38 µM (inactive), the GI50 (UO-31) was 15.5 µM (inactive) and the GI50 (IGROV-1) was 2.12 µM (inactive). For the same compound, the GI50 (786-0) was 35.2 µM (inactive), the GI50 (ACHN) was 26.3 µM (inactive) and the GI50 (K562) was 9.48 µM (inactive). For the same compound, the GI50 (SK-MEL-28) was 48 µM (inactive), the GI50 (EKVX) was 27 µM (inactive) and the GI50 (SNB-19) was 42.5 µM (inactive). For the same compound, the GI50 (M19-MEL) was 21.1 µM (inactive), the GI50 (HT-29) was 27.2 µM (inactive) and the GI50 (UACC-62) was 5.05 µM (inactive). The GI50 (LXFL 529) was 25.3 µM (inactive), the GI50 (SF-539) was 20.7 µM (inactive) and the GI50 (SNB-78) was 87.3 µM (inactive). For the same compound, the GI50 (MOLT-4) was 15.8 µM (inactive), the GI50 (LOX IMVI) was 6.28 µM (inactive) and the GI50 (HOP-18) was > 100 µM (inactive). The GI50 (TK-10) was 80 µM (inactive), the GI50 (HCC 2998) was 28.4 µM (inactive) and the GI50 (HCT-15) was 19.1 µM. The GI50 (DMS-273) was 25.4 µM (inactive), the GI50 (DLD-1) was 23 µM (inactive) and the GI50 (SK-OV-3) was 45.5 µM (inactive). For the same compound, the GI50 (A498) was 8.95 µM (inactive), the GI50 (SK-MEL-5) was 19.1 µM (inactive) and the GI50 (NCI-H23) was 25.7 µM (inactive). For the same compound, the GI50 (DMS-114) was 13.9 µM (inactive), the GI50 (OVCAR-8) was 37.9 µM (inactive) and the GI50 (RPMI-8226) was 33.4 µM (inactive). The GI50 (SN12C) was 20.3 µM (inactive), the GI50 (SF-268) was 56.5 µM (inactive) and the GI50 (UACC-257) was 54.3 µM (inactive).

For `COc1ccc2c(c1[N+](=O)[O-])CC[C@@H]1[C@@H]2CC[C@]2(C)C(=O)CC[C@@H]12`, the GI50 (NCI-H460) was 24.9 µM (inactive), the GI50 (Hs-578T) was 17.1 µM (inactive) and the GI50 (Malme-3M) was 17.2 µM (inactive). The GI50 (CAKI-1) was > 25 µM (inactive), the GI50 (A549) was > 25 µM (inactive) and the GI50 (U-251) was > 25 µM (inactive). For the same compound, the GI50 (HL-60) was 24.5 µM (inactive), the GI50 (PC-3) was 22 µM (inactive) and the GI50 (OVCAR-3) was > 25 µM (inactive). The GI50 (HCT-116) was 20.3 µM (inactive), the GI50 (CCRF-CEM) was 9.06 µM (inactive) and the GI50 (SF-295) was > 25 µM (inactive). The GI50 (HOP-62) was > 6.71 µM (inactive), the GI50 (SNB-75) was > 25 µM (inactive) and the GI50 (MDA-MB-435) was > 25 µM (inactive). The GI50 (COLO 205) was 21.8 µM (inactive), the GI50 (KM12) was > 25 µM (inactive) and the GI50 (OVCAR-5) was > 25 µM (inactive). For the same compound, the GI50 (RXF 393) was > 25 µM (inactive), the GI50 (OVCAR-4) was 15.5 µM (inactive) and the GI50 (SW-620) was > 25 µM (inactive). For the same compound, the GI50 (KM-20L2) was > 25 µM (inactive), the GI50 (HOP-92) was 21.4 µM (inactive) and the GI50 (NCI/ADR-RES) was > 25 µM (inactive). For the same compound, the GI50 (M14) was > 25 µM (inactive), the GI50 (NCI-H226) was 23.1 µM (inactive) and the GI50 (SR) was > 1000 µM (inactive). For the same compound, the GI50 (UO-31) was > 25 µM (inactive), the GI50 (IGROV-1) was > 18 µM (inactive) and the GI50 (786-0) was 210 µM (inactive). For the same compound, the GI50 (ACHN) was > 25 µM (inactive), the GI50 (K562) was 24.9 µM (inactive) and the GI50 (SK-MEL-28) was 20.7 µM (inactive). For the same compound, the GI50 (EKVX) was > 25 µM (inactive), the GI50 (MDA-N) was > 925 µM (inactive) and the GI50 (BT-549) was > 25 µM (inactive). For the same compound, the GI50 (SNB-19) was 24.2 µM (inactive), the GI50 (MDA-MB-231) was > 25 µM (inactive) and the GI50 (M19-MEL) was > 25 µM (inactive). The GI50 (HT-29) was > 25 µM (inactive), the GI50 (NCI-H522) was > 25 µM (inactive) and the GI50 (UACC-62) was 18.3 µM (inactive). For the same compound, the GI50 (SF-539) was > 25 µM (inactive), the GI50 (SNB-78) was 24.7 µM (inactive) and the GI50 (MOLT-4) was > 25 µM (inactive). The GI50 (XF498) was 20.4 µM (inactive), the GI50 (LOX IMVI) was > 25 µM (inactive) and the GI50 (T47D) was > 25 µM (inactive). The GI50 (HOP-18) was > 25 µM (inactive), the GI50 (TK-10) was > 25 µM (inactive) and the GI50 (HCC 2998) was > 1000 µM (inactive). The GI50 (HCT-15) was over 25 µM, the GI50 (DMS-273) was > 25 µM (inactive) and the GI50 (DLD-1) was > 25 µM (inactive). For the same compound, the GI50 (SK-OV-3) was 7.41 µM (inactive), the GI50 (A498) was > 25 µM (inactive) and the GI50 (SK-MEL-5) was > 25 µM (inactive). For the same compound, the GI50 (SK-MEL-2) was 14.8 µM (inactive), the GI50 (MCF7) was > 25 µM (inactive) and the GI50 (NCI-H23) was > 25 µM (inactive). The GI50 (DU-145) was > 25 µM (inactive), the GI50 (DMS-114) was 18.4 µM (inactive) and the GI50 (OVCAR-8) was > 25 µM (inactive). For the same compound, the GI50 (RPMI-8226) was > 25 µM (inactive), the GI50 (SN12C) was > 25 µM (inactive) and the GI50 (SF-268) was > 25 µM (inactive). The GI50 (UACC-257) was > 25 µM (inactive).
